Publication PMC4191602 (Journal of Medicinal Chemistry, 2014)

How the values were obtained:
influenza A endonuclease = settings: earlier studies with phenyl substituted 3-hydroxypyridin-2(1H)-ones; cited from earlier work
[1] = molecular target: Influenza A endonuclease (pandemic H1N1 endonuclease, residues 1–204) (Influenza A virus, UniProt C3W5S0); assay type: biochemical

Structure (SMILES): O=c1[nH]ccc(-c2ccc(F)cc2)c1O [4-(4-fluorophenyl)-3-hydroxypyridin-2(1H)one]
- activity as endonuclease inhibitor (in words) (influenza A endonuclease): did not exhibit significant activity

Structure (SMILES): O=c1[nH]cc(-c2ccc(F)cc2)[nH]c1=O [compound 1, 5-(4-Fluorophenyl)pyrazine-2,3(1H,4H)-dione]
- activity as an endonuclease inhibitor (in words) [1]: comparatively weak activity
- less potent than either 5- or 6-(4-fluorophenyl)-3-hydroxypyridin-2(1H)-one [1]: more than 80 times

Structure (SMILES): O=c1[nH]cnc(-c2ccc(F)cc2)c1O [compound 2, 6-(4-Fluorophenyl)-5-hydroxypyrimidin-4(3H)-one]
- activity as an endonuclease inhibitor (in words) [1]: lack of activity

Structure (SMILES): N#Cc1cccc(-c2ncc(O)c(=O)[nH]2)c1 [compound 10, 3-(5-Hydroxy-6-oxo-1,6-dihydropyrimidin-2-yl)benzonitrile]
- potency compared to the 4-cyanophenyl isomer 9 [1]: approximately twice as potent

Structure (SMILES): O=c1[nH]c(-c2ccc(-c3nnn[nH]3)cc2)ncc1O [compound 11, 2-(4-(1H-Tetrazol-5-yl)phenyl)-5-hydroxypyrimidin-4(3H)-one]
- potency relative to the 3-(tetrazoly)phenyl derivative 12 [1]: 3 fold

Structure (SMILES): O=c1[nH]ncc(-c2ccc(F)cc2)c1O [compound 13, 5-(4-Fluorophenyl)-4-hydroxypyridazin-3(2H)-one]
- activity as an endonuclease inhibitor (in words) [1]: did not exhibit significant activity
